Data from patent US6989270B1, “Using polyamide nucleic acid oligomers to engender a biological response” (Mayo Foundation for Medical Education and Research, priority 1997, dated 2006).
Like-named read-outs stand apart in the source and are kept apart here.

Legend:
[1] = test system: [125I]neurotensin binding sites (NT receptors); assay: [125I]neurotensin binding assay, PAG and hypothalamus homogenates of treated rats; assay type: in vivo, rat
Description: Binding assays were done with homogenates from rat PAG and hypothalamus tissue as described elsewhere (Kanba et al., J. Neurochem. 46:946-952 (1986) and Al-Rodhan N.R.F., Brain Res. 557:227-235 (1991)). Tissue concentrations were 1 mg wet weight per tube in a total volume of 100 μl with a final buffer concentration of 0.05 M Tris-HCl (pH 7.4) containing the following compounds to inhibit degradation of peptides: 0.02% (w/v) bovine serum albumin, 2.8 mg/ml bacitracin, 1.0 mM EDTA, 0.5 mM o-phenanthroline, 10 μg/ml pepstatin, 10 μg/ml leupeptin, 10 μg/ml aprotinin, 5 mM benzamidine, 2 mM phenylmethylsulfonylfluoride, and 50 μM bestatin. For each experiment, 80 μl of a thawed membranal suspension was incubated for 25 minutes at 20° C. in a solution containing 0.2 nM [^125I]neurotensin with a final volume of 100 μl. After incubation, the mixture was rapidly filtered to separate bound from unbound radioligand. Each filter was then dried for 2 minutes, placed on a solid scintillation sheet (Wallac Oy, Turku Finland; cat. no. 1205-441), and measured for radioactivity in a beta-plate scintillation counter (Wallac Oy; model # 1205 beta plate). Non-specific binding of [^125I]neurotensin, defined as the binding in the presence of 1 μM neurotensin (−20% of total binding), was subtracted from the total binding to calculate the specific binding.
The LIGAND program was used to analyze all binding data (Munson P. J. and Rodbard D., Analyt. Biochem. 107:220-239 (1980)). Specifically, this program was used to calculate equilibrium dissociation constants and maximal number of binding sites.
The analysis of PAG tissue in experiment 1 was as follows. Four rats were cannulated and treated on days -4, -2, and 0 with either ACSF only or NTR1-PNA as described above. One day after the final treatment, the PAG region of the rat brain was removed, homogenized, and used in the binding assays. Rats treated with ACSF only were used to derive control values for the percent control disintegrations per minute (dpm) and percent control receptors (fmol/mg wet weight). Thus, the values for ACSF only treated rats were set to 100 percent. One day after the final treatment, the PAG region from NTR1-PNA oligomer treated rats expressed 60-70 percent fewer [^125I]neurotensin binding sites than ACSF only treated rats.
In experiment 2, five rats were untreated and used as controls, two recovered rats were treated with ACSF only, and four rats were treated with NTR1-PNA oligomers. The two rats treated with ACSF only are designated as recovered since both rats previously received a single dose of PNA oligomers intraperitoneally (one received NTR1-PNA oligomers and the other MU1R-PNA oligomers). These rats, however, were not used until five days after the intraperitoneal (i.p.) PNA oligomer treatment. Thus, at the time the binding analysis was performed, these rats were completely normal as determined by the behavioral NT-mediated responses and the MOR-mediated response described above. Again, one day after the final treatment, the PAG region from NTR1-PNA oligomer treated rats expressed fewer [^125I]neurotensin binding sites than both the recovered ACSF only treated rats and untreated control rats. In this experiment, the reduction in binding sites was about 20-30 percent of those expressed by the untreated rats.
NT binding sites from the hypothalamus region of the rat brain were also analyzed. In this experiment, the hypothalamus region of rat brain was removed from the same rats used in experiment 2 to analyze the PAG region (five untreated control rats, two recovered ACSF only treated rats, and four NTR1-PNA oligomer treated rats). The untreated rats were used to derive control values. One day after the final treatment, the hypothalamus region from NTR1-PNA oligomer treated rats expressed 40-50 percent fewer [^125I]neurotensin binding sites than untreated control rats. […]

[2] = test system: [125I]neurotensin binding sites (NT receptors); assay: as above; assay type: in vivo, rat; details: for number of receptors (mean ± SEM in fmol/mg wet wt.) / percent of control / Kd: 24 hours after single oral 10 mg/kg; for Kd: [125I]neurotensin, read-out: KD (mean ± SEM in nM)
[3] = Hypothalamus tissue, untreated control, PNA injected into PAG
[4] = PAG tissue, Experiment 1, control ACSF only, PAG injections days -4, -2, 0
[5] = PAG tissue, Experiment 2, untreated control

**Q.** Which results are given for “NTR1-PNA: 12-mer antisense PNA oligomer to rat NTR1 coding region, 5′-CATTGCTCAAAC-3′ (SEQ ID NO: 1) (all peptide nucleic acid (PNA))”?
**A.** % Control receptors [1, 3]: 51 % Control; % Control dpm's [1, 4]: 41 % Control; % Control receptors [1, 4]: 32 % Control; % Control dpm's [1, 5]: 81 % Control; % Control receptors [1, 5]: 67 % Control; fewer [125I]neurotensin binding sites than ACSF only treated rats ([1]; PAG, experiment 1, one day after final treatment): 60-70%; reduction in [125I]neurotensin binding sites vs untreated rats ([1]; PAG, experiment 2, one day after final treatment): 20-30%; effect of excess PNA added to brain homogenates on the binding assay ([1]; excess PNA added in vitro to brain homogenates): did not change these results; fewer [125I]neurotensin binding sites than untreated control rats ([1]; hypothalamus, one day after final treatment): 40-50%; % Control dpm's [2, 3]: 55 % Control; number of receptors (mean ± SEM in fmol/mg wet wt.) ([2]; Hypothalamus): 240 ± 30 fmol/mg wet wt.; percent of control ([2]; Hypothalamus): 51%; NT binding sites reduced ([2]; PAG and hypothalamus, 24 hours after oral 10 mg/kg): 50%; number of receptors (mean ± SEM in fmol/mg wet wt.) ([2]; PAG): 140 ± 20 fmol/mg wet wt.; percent of control ([2]; PAG): 48%; Kd ([2]; PAG of treated rats): 8.2 ± 0.7 nM; Kd ([2]; hypothalamus of treated rats): 7 ± 0.8 nM
